Results reported in US7547763B2, “Sequences of an Ih ion channel and use thereof” (Forschungszentrum Julich GmbH, priority 1998, dated 2009).
pKi: −log10 of the molar value.

What was measured:
[1] = test system: SPIH channel; assay: Blockade of the SPIH channel by extracellular Cs+ on outside-out membrane patches; assay type: cell-based, Strongylocentrotus purpuratus
Protocol: (§1) cDNA coding the SPIH polypeptide was transiently expressed in HEK293 cells, as described earlier (Baumann et al, 1994). SPIH-controlled currents were recorded with the patch-clamp method in the whole-cell configuration and cell-free membrane patches. The composition of various bath and pipette solutions is indicated in the legends of the figures (see below). The channels were activated by stepping the membrane voltage from +10 mV to various negative voltage values. Leakage currents were subtracted using a P/8 protocol. The voltage dependence of the probability that the channel is open was determined from tail currents at +10 mV. The blockade of the SPIH channel by Cs2+ was analyzed with outside-out membrane patches in the presence of 1 mM cAPM in a pipette solution. The solutions in the bath contained 0.03 to 10 mM CsCl. Relative ion permeabilities were calculated from the respective shift of Vrev, which was measured on cell-free inside-out membrane patches, when 100 mM K^+ in the bath had been replaced by Na^+, Li^+, Rb^+ or Cs^+.

[2] = biological target: T1, SPIH channel (Strongylocentrotus purpuratus, UniProt O76977); assay: Patch-clamp of SPIH currents on excised inside-out membrane patches of transfected HEK293 cells, modulation by cyclic nucleotides; assay type: cell-based
T1 sequence (O76977 1-767): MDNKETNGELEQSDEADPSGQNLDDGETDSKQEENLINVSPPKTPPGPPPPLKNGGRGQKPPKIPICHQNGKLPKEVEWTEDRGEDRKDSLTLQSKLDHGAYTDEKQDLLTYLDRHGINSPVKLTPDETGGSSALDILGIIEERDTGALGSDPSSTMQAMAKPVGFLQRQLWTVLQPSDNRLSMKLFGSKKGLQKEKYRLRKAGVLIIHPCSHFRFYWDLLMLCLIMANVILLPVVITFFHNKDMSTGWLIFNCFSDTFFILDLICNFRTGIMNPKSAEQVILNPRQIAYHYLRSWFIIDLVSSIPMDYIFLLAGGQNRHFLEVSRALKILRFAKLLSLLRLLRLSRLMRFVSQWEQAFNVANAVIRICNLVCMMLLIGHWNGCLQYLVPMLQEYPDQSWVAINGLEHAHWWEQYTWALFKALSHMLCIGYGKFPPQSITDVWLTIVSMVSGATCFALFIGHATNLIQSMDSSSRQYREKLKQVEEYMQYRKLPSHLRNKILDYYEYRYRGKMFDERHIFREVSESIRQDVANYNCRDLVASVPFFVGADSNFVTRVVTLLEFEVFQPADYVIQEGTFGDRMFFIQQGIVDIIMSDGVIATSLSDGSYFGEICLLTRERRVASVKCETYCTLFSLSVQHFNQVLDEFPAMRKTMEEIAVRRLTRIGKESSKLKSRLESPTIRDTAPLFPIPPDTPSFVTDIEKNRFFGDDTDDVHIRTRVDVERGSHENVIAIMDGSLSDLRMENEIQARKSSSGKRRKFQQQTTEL
Protocol: as §1

[3] = test system: SPIH channel; assay: Whole-cell patch-clamp of SPIH currents in transfected HEK293 cells, cyclic nucleotides or caged derivatives in the pipette; assay type: cell-based, Strongylocentrotus purpuratus
Protocol: as §1, with “The voltage dependence of the probability that the channel is open was determined from tail currents at +10 mV. The blockade of the SPIH channel by Cs2+ was analyzed with outside-out membrane patches in the presence of 1 mM cAPM in a pipette solution.” left out, “Cs^+. […] The voltage-step protocol is the same as in FIG. 2A. The bath contained (mM): 135 NaCl, 5 KCl, 1.8 CaCl2, 2.8 MgCl2 and 5 Hepes-NaOH at pH 7.4; the pipette solution contained […]” for “Cs^+.”

Compound: [Cs+] [Cs^+]
- effect on currents ([1]; 10 mM Cs+ in the bath): inward currents disappeared completely
- pKi ([1]; at −70 mV, 1 mM cAMP in pipette, Hill fit, read-out: inhibitory constant Ki for block of standardized current I/Imax): 3.61

Compound: Nc1ncnc2c1ncn2[C@@H]1O[C@@H]2COP(=O)(O)O[C@H]2[C@H]1O [cAMP]
- enhancement of the amplitudes of the voltage-activated currents ([2]; 1 mM cAMP, excised membrane patches): up to 20 fold
- Hill coefficient n of the cAMP dependence of the SPIH current ([2]; inside-out patches, fit of Hill equation, mean of 10 experiments): 1.05
- V1/2 of voltage dependence of Po ([2]; inside-out-patch tail currents, 1 mM cAMP in bath, Boltzmann fit): −84.7 mV
- V1/2 of voltage dependence of Po ([3]; whole-cell tail currents, 1 mM cAMP in pipette, Boltzmann fit): −50.8 mV

Compound: Nc1nc2c(ncn2[C@@H]2O[C@@H]3COP(=O)(O)O[C@H]3[C@H]2O)c(=O)[nH]1 [cGMP]
- effect on amplitude of the SPIH currents ([2]; cGMP concentrations of up to 1 mM, excised membrane patches): did not change the amplitude of the SPIH currents
- effect on SPIH-induced whole-cell currents ([3]; 1 mM in the pipette): also changed the SPIH-induced currents
